Measurements reported in patent publication US20230009626A1 (ICHNOS SCIENCES S.A., priority 2018, published 2023).

Target: HPK1 (MAP4K1) (Homo sapiens, UniProt Q92918)
Experiment: FRET Assay for HPK1 (MAP4K1): one step binding assay, displacement of labeled tracer
Details: for inhibition at 1 µM: 1 μM compound; for inhibition at 1 µM / inhibition at 10 µM: FRET ratio 665/620, percent of control; for inhibition at 10 µM: 10 μM compound; for IC50: dose response curve, nonlinear regression
Source text: FRET Assay for HPK1 (MAP4K1):
This is a one step binding assay based on the binding and displacement of the labeled tracer, where compound addition is followed by addition of the anti-GST tagged europium (Eu) as the donor and Alexa Fluor-labeled tracer as the acceptor. Simultaneous binding of both the tracer and GST-antibody to the kinase domain of HPK1 results in a high degree of FRET (fluorescence resonance energy transfer) from the anti-GST tagged europium (Eu) fluorophore to the Alexa Fluor® 647 fluorophore on the kinase tracer and this signal is reduced in presence of the inhibitor that can be measured.
Test compounds or reference compounds such as Sunitinib (Sigma) were dissolved in dimethylsulfoxide (DMSO) to prepare 10.0 mM stock solutions and diluted to the desired concentration. The final concentration of DMSO in the reaction was 3% (v/v). The assay mixture was prepared by mixing 4 nM of the Eu-Anti-GST Antibody and 10 nM MAP4K-1 enzyme in the Kinase buffer containing 50mM HEPES (pH 7.5), 10 mM MgCl2, 1 mM EGTA, 0.01% Brij-35 with or without the desired concentration of the compound. The reaction was incubated on ice for 15 mins. The pre-incubation step was followed by addition of the 20 nM Kinase Tracer 222 into the reaction mixture. After shaking for 5 min the reaction was further incubated for 1 hour at room temperature and this was kept at 4° C. and read on ARTEMIS reader as per the kit instructions (Thermo). […] The activity was calculated as percent of control reaction. IC50 values were calculated from dose response curve by nonlinear regression analysis using GraphPad Prism software.
Percentage inhibition at concentrations of 1.0 μM and 10.0 μM are given in the table along with IC50 (nM) details for selected examples.

HPK1 (MAP4K1), sequence (Q92918 whole entry): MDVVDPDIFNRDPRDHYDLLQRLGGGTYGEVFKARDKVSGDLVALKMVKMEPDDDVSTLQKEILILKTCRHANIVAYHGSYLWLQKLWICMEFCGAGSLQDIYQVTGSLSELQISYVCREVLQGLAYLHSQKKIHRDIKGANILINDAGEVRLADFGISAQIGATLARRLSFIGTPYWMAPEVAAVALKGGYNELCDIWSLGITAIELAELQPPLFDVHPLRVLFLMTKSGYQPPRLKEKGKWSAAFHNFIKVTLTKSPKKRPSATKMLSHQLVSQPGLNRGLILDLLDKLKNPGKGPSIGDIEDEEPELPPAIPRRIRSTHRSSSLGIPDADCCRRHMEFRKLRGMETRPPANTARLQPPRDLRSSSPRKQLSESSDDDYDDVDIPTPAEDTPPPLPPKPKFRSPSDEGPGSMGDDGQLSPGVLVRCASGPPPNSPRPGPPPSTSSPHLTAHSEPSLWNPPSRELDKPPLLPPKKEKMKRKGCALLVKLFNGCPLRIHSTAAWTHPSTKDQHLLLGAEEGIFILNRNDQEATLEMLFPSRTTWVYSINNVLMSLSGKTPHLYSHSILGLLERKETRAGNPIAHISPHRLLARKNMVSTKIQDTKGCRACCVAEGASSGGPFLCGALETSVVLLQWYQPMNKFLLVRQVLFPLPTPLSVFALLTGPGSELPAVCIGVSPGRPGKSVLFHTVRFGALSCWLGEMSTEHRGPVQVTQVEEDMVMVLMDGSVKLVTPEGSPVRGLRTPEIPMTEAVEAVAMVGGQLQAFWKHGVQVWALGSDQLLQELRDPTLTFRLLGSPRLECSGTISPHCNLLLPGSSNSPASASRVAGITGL

Row | Structure (SMILES) | inhibition at 1 µM [%] | inhibition at 10 µM [%] | IC50 [nM]
1 | COc1cccc(F)c1-c1cc2c(cn1)NC(=O)/C2=C(/C)Nc1ccn(C)n1 [Example 28, (Z)-5-(2-Fluoro-6-methoxyphenyl)-3-(1-((1-methyl-1H-pyrazol-3-yl)amino)ethylidene)-1H-pyrrolo[2,3-c]pyridin-2(3H)-one] | 84.8 | 89.4 | < 50
2 | CCn1cc(N/C(C)=C2\C(=O)Nc3cnc(-c4c(F)cccc4OC)cc32)cn1 [Example 29, (Z)-3-(1-((1-Ethyl-1H-pyrazol-4-yl)amino)ethylidene)-5-(2-fluoro-6-methoxyphenyl)-1H-pyrrolo[2,3-c]pyridin-2(3H)-one] | 87.4 | 85.1 | < 50
3 | COc1cccc(F)c1-c1cc2c(cn1)NC(=O)/C2=C(/C)Nc1cnn(C2CC2)c1 [Example 30, (Z)-3-(1-((1-Cyclopropyl-1H-pyrazol-4-yl)amino)ethylidene)-5-(2-fluoro-6-methoxyphenyl)-1H-pyrrolo[2,3-c]pyridin-2(3H)-one] | 89.9 | 92.8 | < 50
4 | COc1cccc(F)c1-c1cc2c(cn1)NC(=O)/C2=C(/C)Nc1cnn(C(C)C#N)c1 (centres unmarked) [Example 31, (Z)-2-(4-((1-(5-(2-Fluoro-6-methoxyphenyl)-2-oxo-1H-pyrrolo[2,3-c]pyridin-3(2H)-ylidene)ethyl)amino)-1H-pyrazol-1-yl)propanenitrile] | 86.9 | 92.3 | < 50
5 | CC/C(Nc1cnn(C)c1)=C1/C(=O)Nc2cnc(-c3c(F)cccc3OC)cc21 [Example 32, (Z)-5-(2-Fluoro-6-methoxyphenyl)-3-(1-((1-methyl-1H-pyrazol-4-yl)amino)propylidene)-1H-pyrrolo[2,3-c]pyridin-2(3H)-one] | 90.3 | 100 | < 50
6 | COc1ccncc1-c1cc2c(cn1)NC(=O)/C2=C(/C)Nc1cnn(C)c1 [Example 33, (Z)-5-(4-methoxypyridin-3-yl)-3-(1-((1-methyl-1H-pyrazol-4-yl)amino)ethylidene)-1H-pyrrolo[2,3-c]pyridin-2(3H)-one] | 91.6 | 87.8 | < 50
7 | CCOc1cccc(F)c1-c1cc2c(cn1)NC(=O)/C2=C(/C)Nc1ccc(N2CCNCC2)cc1 [Example 34, (Z)-5-(2-Ethoxy-6-fluorophenyl)-3-(1-((4-(piperazin-1-yl)phenyl)amino)ethylidene)-1H-pyrrolo[2,3-c]pyridin-2(3H)-one] | 81.7 | 80 | < 50
8 | C/C(Nc1cnn(C)c1)=C1/C(=O)Nc2cnc(-c3c(F)cccc3OC(F)F)cc21 [Example 35, (Z)-5-(2-(Difluoromethoxy)-6-fluorophenyl)-3-(1-((1-methyl-1H-pyrazol-4-yl)amino)ethylidene)-1H-pyrrolo[2,3-c]pyridin-2(3H)-one] | 88 | 100 | < 50
9 | CCOc1cccc(F)c1-c1cc2c(cn1)NC(=O)/C2=C(/C)Nc1ccc(N2CCNCC2)nc1 [Example 36, (Z)-5-(2-Ethoxy-6-fluorophenyl)-3-(1-((6-(piperazin-1-yl)pyridin-3-yl)amino)ethylidene)-1H-pyrrolo[2,3-c]pyridin-2(3H)-one] | 87.8 | 85.1 | < 50
10 | CCOc1cccc(F)c1-c1cc2c(cn1)NC(=O)/C2=C(/C)Nc1ccc(N2CCOCC2)nc1 [Example 37, (Z)-5-(2-Ethoxy-6-fluorophenyl)-3-(1-((6-morpholinopyridin-3-yl)amino)ethylidene)-1H-pyrrolo[2,3-c]pyridin-2(3H)-one] | 84.4 | 91.2 | 50 to 100
11 | C/C(Nc1ccc(N2CCOCC2)nc1)=C1/C(=O)Nc2cnc(-c3cnccc3C)cc21 [Example 38, (Z)-5-(4-Methylpyridin-3-yl)-3-(1-((6-morpholinopyridin-3-yl)amino)ethylidene)-1H-pyrrolo[2,3-c]pyridin-2(3H)-one] | 93.5 | – | < 50
12 | COCCn1cc(N/C(C)=C2\C(=O)Nc3cnc(-c4c(F)cccc4OC)cc32)cn1 [Example 39, (Z)-5-(2-Fluoro-6-methoxyphenyl)-3-(1-((1-(2-methoxyethyl)-1H-pyrazol-4-yl)amino)ethylidene)-1H-pyrrolo[2,3-c]pyridin-2(3H)-one] | 72.2 | 86.6 | < 50
13 | COc1cccc(F)c1-c1cc2c(cn1)NC(=O)/C2=C(\Nc1cnn(C)c1)C(C)C [Example 40, (Z)-5-(2-Fluoro-6-methoxyphenyl)-3-(2-methyl-1-((1-methyl-1H-pyrazol-4-yl)amino)propylidene)-1H-pyrrolo[2,3-c]pyridin-2(3H)-one] | 81.3 | 92 | 100 to 500
14 | C/C(Nc1cnn(C)c1)=C1/C(=O)Nc2cnc(-c3cnn(C)c3C)cc21 [Example 41, (Z)-5-(1,5-Dimethyl-1H-pyrazol-4-yl)-3-(1-((1-methyl-1H-pyrazol-4-yl)amino)ethylidene)-1H-pyrrolo[2,3-c]pyridin-2(3H)-one] | 69.9 | 77 | 50 to 100
15 | COc1cccc(F)c1-c1ccc2c(n1)/C(=C(\C)Nc1cnn(C)c1)C(=O)N2 [Example 43, (Z)-5-(2-Fluoro-6-methoxyphenyl)-3-(1-((1-methyl-1H-pyrazol-4-yl)amino)ethylidene)-1H-pyrrolo[3,2-b]pyridin-2(3H)-one] | 86.2 | 89.2 | < 50
16 | COc1cccc(F)c1-c1cc2c(cn1)NC(=O)/C2=C(/C)Nc1cnn(C2CCOCC2)c1 [Example 44, (Z)-5-(2-Fluoro-6-methoxyphenyl)-3-(1-((1-(tetrahydro-2H-pyran-4-yl)-1H-pyrazol-4-yl)amino)ethylidene)-1H-pyrrolo[2,3-c]pyridin-2(3H)-one] | 91.4 | 93.1 | < 50
17 | C/C(Nc1cnn(C)c1)=C1/C(=O)Nc2cnc(-c3cnc4c(c3C)NCCO4)cc21 [Example 45, (Z)-3-(1-((1-Methyl-1H-pyrazol-4-yl)amino)ethylidene)-5-(8-methyl-2,3-dihydro-1H-pyrido[2,3-b][1,4]oxazin-7-yl)-1H-pyrrolo[2,3-c]pyridin-2(3H)-one] | 72.4 | 86 | 100 to 500
18 | C/C(Nc1ccc(N2CCNCC2)nc1)=C1/C(=O)Nc2cnc(-c3cnccc3C)cc21 [Example 46, (Z)-5-(4-Methylpyridin-3-yl)-3-(1-((6-(piperazin-1-yl)pyridin-3-yl)amino)ethylidene)-1H-pyrrolo[2,3-c]pyridin-2(3H)-one] | 85.3 | 87.3 | < 50
19 | CC/C(Nc1cnn(C)c1)=C1/C(=O)Nc2cnc(-c3cnccc3C)cc21 [Example 47, (Z)-3-(1-((1-Methyl-1H-pyrazol-4-yl)amino)propylidene)-5-(4-methylpyridin-3-yl)-1H-pyrrolo[2,3-c]pyridin-2(3H)-one] | 83.5 | 82.5 | < 50
20 | Cc1ccncc1-c1cc2c(cn1)NC(=O)/C2=C(\Nc1cnn(C)c1)C(C)C [Example 48, (Z)-3-(2-Methyl-1-((1-methyl-1H-pyrazol-4-yl)amino)propylidene)-5-(4-methylpyridin-3-yl)-1H-pyrrolo[2,3-c]pyridin-2(3H)-one] | 77.2 | 84.8 | 50 to 100
21 | C/C(Nc1cnn(C2CC2)c1)=C1/C(=O)Nc2cnc(-c3cnccc3C)cc21 [Example 49, (Z)-3-(1-((1-Cyclopropyl-1H-pyrazol-4-yl)amino)ethylidene)-5-(4-methylpyridin-3-yl)-1H-pyrrolo[2,3-c]pyridin-2(3H)-one] | 64.3 | 74.2 | < 50
22 | CCn1cc(N/C(C)=C2\C(=O)Nc3cnc(-c4cnccc4C)cc32)cn1 [Example 50, (Z)-3-(1-((1-Ethyl-1H-pyrazol-4-yl)amino)ethylidene)-5-(4-methylpyridin-3-yl)-1H-pyrrolo[2,3-c]pyridin-2(3H)-one] | 82.8 | 87.9 | < 50
23 | C/C(Nc1cnn(C)c1)=C1/C(=O)Nc2cnc(-c3cncc(N)c3C)cc21 [Example 51, (Z)-5-(5-Amino-4-methylpyridin-3-yl)-3-(1-((1-methyl-1H-pyrazol-4-yl)amino)ethylidene)-1H-pyrrolo[2,3-c]pyridin-2(3H)-one] | 81.2 | 84.2 | < 50
24 | C/C(Nc1cnn(C2COC2)c1)=C1/C(=O)Nc2cnc(-c3cnccc3C)cc21 [Example 52, (Z)-5-(4-Methylpyridin-3-yl)-3-(1-((1-(oxetan-3-yl)-1H-pyrazol-4-yl)amino)ethylidene)-1H-pyrrolo[2,3-c]pyridin-2(3H)-one] | 86.1 | 84.9 | < 50
